# Measurements taken from patent US20180353457A1, “ABIETANE DITERPENOID 7-ACETOXYROYLEANONES FOR USE IN CANCER TREATMENT” (University of South Carolina, priority 2017, published 2018).
# What was measured:
# [1] = tested on: MDA-MB-468 (breast cancer) cells; test: NCI-60 five dose screen, MDA-MB-468; conditions: Homo sapiens, MDA-MB-468, read-out: LC50
# [2] = tested on: SF-295 (CNS cancer) cells; test: NCI-60 five dose screen, SF-295; conditions: Homo sapiens, SF-295, read-out: LC50
# [3] = tested on: MDA-MB-435 (melanoma) cells; test: NCI-60 five dose screen, MDA-MB-435; conditions: Homo sapiens, MDA-MB-435, read-out: LC50
# [4] = tested on: A498 (renal cancer) cells; test: NCI-60 five dose screen, A498; conditions: Homo sapiens, A498, read-out: LC50
# [5] = tested on: SK-MEL-5 (melanoma) cells; test: NCI-60 five dose screen, SK-MEL-5; conditions: Homo sapiens, SK-MEL-5, read-out: LC50
# [6] = tested on: DU-145 (prostate cancer) cells; test: NCI-60 five dose screen, DU-145; conditions: Homo sapiens, DU-145, read-out: LC50
# [7] = tested on: HOP-92 (non-small cell lung cancer) cells; test: NCI-60 five dose screen, HOP-92; conditions: Homo sapiens, HOP-92, read-out: LC50
# [8] = tested on: RXF 393 (renal cancer) cells; test: NCI-60 five dose screen, RXF 393; conditions: Homo sapiens, RXF 393, read-out: LC50
# [9] = tested on: HCC-2996 (colon cancer) cells; test: NCI-60 five dose screen, HCC-2996; conditions: read-out: LC50
# [10] = tested on: COLO 205 (colon cancer) cells; test: NCI-60 five dose screen, COLO 205; conditions: Homo sapiens, COLO 205, read-out: LC50
# [11] = tested on: NCI-H522 (non-small cell lung cancer) cells; test: NCI-60 five dose screen, NCI-H522; conditions: Homo sapiens, NCI-H522, read-out: LC50
# [12] = tested on: OVCAR-3 (ovarian cancer) cells; test: NCI-60 five dose screen, OVCAR-3; conditions: Homo sapiens, OVCAR-3, read-out: LC50
compound,measurement,setting,value
"COc1cccc2c1C(=O)c1c(O)c3c(c(O)c1C2=O)C[C@@](O)(C(=O)CO)C[C@@H]3O[C@H]1C[C@H](N)[C@H](O)[C@H](C)O1 [Doxorubicin, doxorubicin, reference compound]",CC50,[1],2.45 µM
same,CC50,[2],19.1 µM
same,CC50,[3],2.88 µM
same,CC50,[4],3.72 µM
same,CC50,[5],1.62 µM
same,CC50,[6],23.4 µM
same,CC50,[7],20.9 µM
same,CC50,[8],4.79 µM
same,CC50,[9],6.76 µM
same,CC50,[10],4.9 µM
same,CC50,[11],9.33 µM
same,CC50,[12],23.4 µM
